The record followed here is patent US5763464A, “Retroviral agents containing anthranilamide, substituted benzamide and other subunits, and methods of using same” (The United States of America as represented by the …, priority 1995, dated 1998).

Assay [1] concerns the target T1, HIV-1 protease (wild-type, WT) (Human immunodeficiency virus type 1 group M subtype B, UniProt P04585).
T1 construct: purified HIV-1 protease (wild-type, WT)
Put plainly: biochemical. How it is done: The inhibition constants (Ki) for the compounds of the above examples were determined using purified HIV-1 protease (wild-type, WT) (Tables I, II and III). Ki is an inhibition constant of a given compound as derived by enzyme kinetics. A low Ki represents a high affinity of the compound for the enzyme, i.e., tight binding or low dissociation. Inhibition of the cleavage was assayed using a fluorogenic substrate available from Molecular Probes, Inc., Eugene, Oreg., and described in Kageyama et al., Antimicrob. Agents. Chemother., 37, 272 (1993), and a fluorogenic substrate available from Bachem California, Torrance, Calif., and described in Kageyama et al. (1993), supra. Percent inhibition is the percentage inhibition of an enzyme's activity by a given compound at a given concentration.

Assay [2] concerns HIV-1 (CEM cells chronically infected with HIV-1). Put plainly: Anti-retroviral activity in CEM cells chronically infected with HIV-1, soluble formazan assay. The class given is cell-based. The note with it: Human immunodeficiency virus 1, CCRF-CEM. How it is done:
Using the soluble formazan assay described by Weislow et al. (J. Nat'l. Cancer Inst., 81, 577-586 (1989)), CEM cells chronically infected with HIV-1 were used to assay the anti-retroviral activity of test compounds described herein. The concentration of compound that inhibits 50% of viral activity (EC50; determined as described in Weislow et al. (1989), supra) and the inhibition constant (Ki, as defined in Example 7) for the compound were determined.

Another assay has as its system CEM cells. The assay is described as follows: Toxicity (IC50) in CEM cells, soluble formazan assay. The following applies: Homo sapiens, CCRF-CEM.
The mark [3] stands for this setting: Table I, unit inferred, read-out: Ki.

Structures are written as SMILES. Where two headings read alike, the source gives them in different places. Some results are limits rather than exact numbers.

`CC(C)(C)OC(=O)N[C@@H](Cc1ccccc1)C[C@H](O)[C@H](Cc1ccccc1)NC(=O)c1ccccc1NC(=O)OCc1ccccn1` [AN-42]: in assay [1] (Table II, read-out: Ki), the Ki worked out at 0.85 nM. The EC50 in assay [2] (Table II, read-out: EC50) is below 1000 nM. Besides, inhibition in the assay with CEM cells was half-maximal at 23000 nM (IC50).

Consider `CC(C)(C)NC(=O)N[C@@H](Cc1ccccc1)C[C@H](O)[C@H](Cc1ccccc1)NC(=O)c1ccccc1NC(=O)OCc1ccccn1` [AN-43], for which the Ki in assay [1] (Table II, read-out: Ki) amounted to 1.05 nM. Further, the EC50 in assay [2] (Table II, read-out: EC50) was determined as 1600 nM. The 50% inhibitory concentration (IC50) in the assay with CEM cells stood at 33000 nM.

Turning to `Nc1ccccc1C(=O)N[C@@H](Cc1ccccc1)C[C@H](O)[C@H](Cc1ccccc1)NC(=O)c1ccccc1N` [AN-72], the Ki in assay [1] (setting [3]) worked out at 96 nM.

As for `Cc1c(O)cccc1C(=O)N[C@@H](Cc1ccccc1)[C@H](O)[C@H](O)[C@H](Cc1ccccc1)NC(=O)O[C@H]1CCOC1` [AN-76], affinity in assay [1] was put at a Ki of 2 nM. In addition, the EC50 in assay [2] (Table I) worked out at 7500 nM. In the assay with CEM cells, this molecule came in with an IC50 above 50000 nM.

`Cc1c(O)cccc1C(=O)N[C@@H](Cc1ccccc1)[C@@H](O)[C@@H](O)[C@H](Cc1ccccc1)NC(=O)O[C@H]1CCOC1` [AN-78] showed a Ki in assay [1] of 1.43 nM. Moreover, in assay [2] (Table I), the concentration giving a half-maximal response (EC50) is 21000 nM. Also, the IC50 with CEM cells was above 50000 nM.

For `Cc1c(O)cccc1C(=O)N[C@@H](Cc1ccccc1)[C@@H](O)C[C@H](Cc1ccccc1)NC(=O)c1ccc(O)cc1` [AN-88], the Ki in assay [1] (setting [3]) worked out at 3.65 nM.

`Cc1c(O)cccc1C(=O)N[C@@H](Cc1ccccc1)[C@@H](O)C[C@H](Cc1ccccc1)NC(=O)c1cccc(O)c1` [AN-89]: in assay [1] (setting [3]), the Ki stood at 1.88 nM.

Consider `COc1ccc(S(=O)(=O)N[C@@H](Cc2ccccc2)C[C@H](O)[C@H](Cc2ccccc2)NC(=O)c2cccc(O)c2C)cc1` [AN-91], for which the Ki in assay [1] (Table I, unit printed in the line, read-out: Ki) was 1500 nM.

Turning to `Cc1c(O)cccc1C(=O)N[C@@H](Cc1ccccc1)[C@@H](O)C[C@H](Cc1ccccc1)NC(=O)OCc1cccnc1` [AN-92, (2S,3S,5S)-2-[N-[(3-hydroxy-2-methylphenyl)carbonyl]amino]-5-[N-[(3-pyridinylmethoxy)carbonyl]amino]-1,6-diphenyl-3-hydroxy hexane], in assay [1] (setting [3]), the Ki is 0.46 nM. In assay [2] (Table I, read-out: EC50), the EC50 came out at 1300 nM. Besides, the IC50 in the assay with CEM cells is above 100000 nM.

`Cc1c(O)cccc1C(=O)N[C@@H](Cc1ccccc1)[C@@H](O)C[C@H](Cc1ccccc1)NC(=O)c1cccc(N)c1` [AN-96, (2S,3S,5S)-2-[N-[(3-hydroxy-2-methylphenyl)carbonyl]amino]-5-[N-(3-aminophenyl)carbonyl]amino-1,6-diphenyl-3-hydroxy hexane] came in with a Ki in assay [1] of 0.75 nM. The molecule also had a half-maximal effective concentration (EC50) in assay [2] (Table I) of 630 to 58000 nM. Also, the IC50 in the assay on CEM cells was above 100000 nM.

Take `Cc1c(O)cccc1C(=O)N[C@@H](Cc1ccccc1)[C@@H](O)C[C@H](Cc1ccccc1)NC(=O)O[C@H]1CCOC1` [AN-98]: in assay [1] (setting [3]), the Ki was determined as 0.32 nM. Besides, in assay [2] (Table I, read-out: EC50), the EC50 was 630 to 1000 nM. The molecule further returned an IC50 in the assay with CEM cells above 100000 nM.

Regarding `Cc1c(O)cccc1C(=O)N[C@@H](Cc1ccccc1)C[C@H](O)[C@H](Cc1ccccc1)NC(=O)c1cccc(O)c1C` [DD-8], the Ki in assay [1] (read-out: Ki) was found to be 0.8 nM. For the same molecule, in assay [2] (Table I, read-out: EC50), the EC50 was 400 nM. In the assay with CEM cells, this molecule showed an IC50 of 22000 nM.

Regarding `O=C(Nc1ccccc1C(=O)N[C@@H](Cc1ccccc1)[C@@H](O)[C@@H](O)[C@H](Cc1ccccc1)NC(=O)c1cccc(O)c1)OCc1ccccc1` [DN-3], the Ki in assay [1] (Table II, read-out: Ki) was 5.9 nM.

With `O=C(Nc1ccccc1C(=O)N[C@@H](Cc1ccccc1)[C@@H](O)[C@@H](O)[C@H](Cc1ccccc1)NC(=O)c1cccc(O)c1)OCc1ccccn1` [DN-4], the Ki in assay [1] (Table II, read-out: Ki) is 1.77 nM. For the same molecule, the EC50 in assay [2] (Table II, read-out: EC50) was determined as 900 nM. The molecule also registered an IC50 with CEM cells of 9000 to 28000 nM.

On to `CC(C)(C)OC(=O)N[C@@H](Cc1ccccc1)[C@@H](O)[C@@H](O)[C@H](Cc1ccccc1)NC(=O)c1ccccc1NC(=O)OCc1ccccn1` [DN-11], for which the Ki in assay [1] (Example 2, read-out: Ki) is 0.4 nM; in assay [1] (Table II, read-out: Ki), 0.45 nM. For the same molecule, in assay [2] (Table II, read-out: EC50), the EC50 was found to be 490 nM. Also, in the assay with CEM cells, it took 21000 nM to reach half-maximal inhibition (IC50).

Consider `O=C(N[C@@H](Cc1ccccc1)[C@H](O)[C@H](O)[C@H](Cc1ccccc1)NC(=O)c1cccc(O)c1)c1cccc(O)c1` [Diol-10], for which the Ki in assay [1] (Table I, unit not given) is on record as 22/25.

Consider `O=C(N[C@@H](Cc1ccccc1)[C@H](O)[C@H](O)[C@H](Cc1ccccc1)NC(=O)c1ccc(O)cc1)c1ccc(O)cc1` [Diol-51], for which the Ki in assay [1] (setting [3]) is 276 nM.

Regarding `Cc1c(O)cccc1C(=O)N[C@@H](Cc1ccccc1)[C@H](O)[C@H](O)[C@H](Cc1ccccc1)NC(=O)c1cccc(O)c1C` [Diol-52], the Ki in assay [1] (setting [3]) is 1.2 nM. This molecule also registered an EC50 in assay [2] (Table I) of 900 nM. In the assay on CEM cells, the IC50 was found to be 25000 nM.

Turning to `O=C(N[C@@H](Cc1ccccc1)[C@H](O)[C@H](O)[C@H](Cc1ccccc1)NC(=O)c1ccccc1)c1ccccc1` [Diol-56], in assay [1] (setting [3]), the Ki amounted to 40 nM.

`Cc1ccccc1C(=O)N[C@@H](Cc1ccccc1)[C@H](O)[C@H](O)[C@H](Cc1ccccc1)NC(=O)c1ccccc1C` [Diol-57]: the Ki in assay [1] (setting [3]) worked out at 8 nM.

`O=C(N[C@@H](Cc1ccccc1)[C@H](O)[C@H](O)[C@H](Cc1ccccc1)NC(=O)c1ccccc1O)c1ccccc1O` [Diol-58]: the “Percent inhibition (Ki column)” value in assay [1] (Table I, 10μ) amounted to 32%.

Turning to `CC(C)C(NC(=O)OCc1ccccn1)C(=O)N[C@@H](Cc1ccccc1)C[C@H](O)[C@H](Cc1ccccc1)NC(=O)c1ccccc1NC(=O)OCc1ccccn1` (some centres unmarked) [LL-68], the Ki in assay [1] (Table II, read-out: Ki) came out at 0.034 nM. Further, the EC50 in assay [2] (Table II, read-out: EC50) turned out to be 490 nM. The IC50 in the assay on CEM cells came to 22000 nM.

For `Cc1c(O)cccc1C(=O)N[C@@H](Cc1ccccc1)C[C@H](O)[C@H](Cc1ccccc1)NC(=O)c1ccccc1NC(=O)OCc1ccccn1` [LL-69], in assay [1] (Table II, read-out: Ki), the Ki turned out to be 0.68 nM.

Consider `CC(C)(C)OC(=O)N[C@@H](Cc1ccccc1)[C@@H](O)[C@@H](O)[C@H](Cc1ccccc1)NC(=O)c1ccccc1NC(=O)OCc1ccccn1` [LL-70], for which the Ki in assay [1] (read-out: Ki) came to 0.14 nM.

As for `CC(C)C(NC(=O)OCc1ccccn1)C(=O)N[C@@H](Cc1ccccc1)[C@@H](O)[C@@H](O)[C@H](Cc1ccccc1)NC(=O)c1ccccc1NC(=O)OCc1ccccn1` (stereo partly drawn) [LL-73, (2S,3R,4S,5S)-2-[N-(N-(2-pyridinylmethoxy)valinyl)amino]-5-[N-[N-((2-pyridinylmethoxy)carbonyl)anthranilyl]amino]-3,4-dihydroxy-1,6-diphenyl hexane], a half-maximal effect in assay [2] (Table III) (EC50) was put at 4 nM. Further, the IC50 in the assay with CEM cells turned out to be 47000 nM.

For the molecule `O=C(Nc1ccccc1C(=O)N[C@@H](Cc1ccccc1)C[C@H](O)[C@H](Cc1ccccc1)NC(=O)O[C@H]1CCOC1)OCc1ccccn1` [LL-101, (2S,3S,5S)-5-[N-[N-((2-pyridinylmethoxy)carbonyl)anthranilyl]amino]2-[N-((3-S-(tetrahydrofuranyl)oxy)carbonyl)amino]-1,6-diphenyl-3-hydroxy hexane], the Ki in assay [1] amounted to 0.042 ± 0.007 nM.

Turning to `O=C(Nc1ccccc1C(=O)N[C@@H](Cc1ccccc1)[C@H](O)[C@H](O)[C@H](Cc1ccccc1)NC(=O)c1cccc(O)c1)OCc1ccccn1` [ND-4], in assay [1] (Table III, read-out: Ki), the Ki amounted to 0.76 nM.

`CC(C)(C)OC(=O)N[C@@H](Cc1ccccc1)[C@H](O)[C@H](O)[C@H](Cc1ccccc1)NC(=O)OC(C)(C)C` [RS-196]: in assay [1] (read-out: Ki), the Ki was determined as 8.4 nM.

Turning to `Cc1c(O)cccc1C(=O)N[C@@H](Cc1ccccc1)[C@H](O)[C@H](O)[C@H](Cc1ccccc1)NC(=O)OC(C)(C)C` [RS-198], in assay [1] (setting [3]), the Ki amounted to 8.3 nM.

`Cc1ccc(O)cc1C(=O)N[C@@H](Cc1ccccc1)C[C@H](O)[C@H](Cc1ccccc1)NC(=O)c1cc(O)ccc1C` [RS-201]: the Ki in assay [1] (setting [3]) is 6.6 nM.
